test system: aconitine-induced arrhythmias; assay: Anti-arrhythmic action (aconitine-induced arrhythmias in mice); assay type: in vivo, male ddY mice; conditions: 100 mg/kg orally 60 min prior to aconitine infusion, percent increase of aconitine needed to induce arrhythmias
Experimental: 2. Anti-arrhythmic action (aconitine-induced arrhythmias in mice)
Male ddY mice weighing about 30 g were anesthetized with pentobarbital sodium given intraperitoneally. Aconitine (1.32 μg/min) was continuously infused into a tail vein 15 min posterior to pentobarbital sodium administration. […] The amount of aconitine needed to induce arrhythmias was calculated from the time taken to the onset of the first premature ventricular systoles. The test compounds (100 mg/kg) were orally given 60 min prior to aconitine infusion. Their relative potencies to quinidine were compared by the percent increase of aconitine needed to induce arrhythmias.

Q: `COc1cc(C(C#N)(CCCNCCOc2ccccc2)C(C)C)cc(OC)c1OC.Cl` (stereo not drawn) [Example 3, Alpha-isopropyl-alpha-[3-(2-phenoxyethylamino)propyl]-3,4,5-trimethoxyphenylacetonitrile Hydrochloride] was tested. Which “Anti-arrhythmic action, relative potency (quinidine = 1)” value did it give?
A: 2.01

Q: For `COc1ccccc1OCCCNCCC(C#N)(c1cc(OC)c(OC)c(OC)c1)C(C)C.Cl` (stereo not drawn) [Example 6, Alpha-isopropyl-alpha-[2-[N-[3-(2-methoxyphenoxy)propyl]-amino]ethyl]-3,4,5-trimethoxyphenylacetonitrile Hydrochloride], which “Anti-arrhythmic action, relative potency (quinidine = 1)” value is on record?
A: 2.02

Q: How did the “Anti-arrhythmic action, relative potency (quinidine = 1)” value turn out when `COc1cc(C(C#N)(CCCNCCCOc2ccccc2N)C(C)C)cc(OC)c1OC` (stereo not drawn) [Example 11, Alpha-isopropyl-alpha-[3-[N-[3-(2-aminophenoxy)propyl]amino]-propyl]-3,4,5-trimethoxyphenylacetonitrile] was run?
A: 1.51

Q: How did the “Anti-arrhythmic action, relative potency (quinidine = 1)” value turn out when `COc1cccc(C(C#N)(CCCNCCOc2ccccc2OC)C(C)C)c1` (stereo not drawn) [Example 19] was run?
A: 2.28

Q: Which “Anti-arrhythmic action, relative potency (quinidine = 1)” value does the source give for `COc1cccc(C(C#N)(CCCN(C)CCOc2ccccc2OC)C(C)C)c1` (stereo not drawn) [Example 20] here?
A: 1.20

Q: How did the “Anti-arrhythmic action, relative potency (quinidine = 1)” value turn out when `COc1cccc(C(C#N)(CCCNCCCOc2ccccc2OC)C(C)C)c1` (stereo not drawn) [Example 25] was run?
A: 2.34

Q: With `COc1cccc(C(C#N)(CCCN(C)CCCOc2ccccc2OC)C(C)C)c1` (stereo not drawn) [Example 26] as the compound, how does the “Anti-arrhythmic action, relative potency (quinidine = 1)” value read?
A: 1.60

Q: Which “Anti-arrhythmic action, relative potency (quinidine = 1)” value does the source give for `COc1ccc(C(C#N)(CCCNCCCOc2ccccc2OC)C(C)C)cc1` (stereo not drawn) [Example 27] here?
A: 1.43

Q: How did the “Anti-arrhythmic action, relative potency (quinidine = 1)” value turn out when `COc1ccc(C(C#N)(CCCNCCCOc2ccccc2OC)C(C)C)cc1OC` (stereo not drawn) [Example 57] was run?
A: 1.52

Q: `COc1ccc(C(C#N)(CCCN(C)CCCOc2ccccc2OC)C(C)C)cc1OC` (stereo not drawn) [Example 58] was tested. Which “Anti-arrhythmic action, relative potency (quinidine = 1)” value did it give?
A: 1.64

Q: How did the “Anti-arrhythmic action, relative potency (quinidine = 1)” value turn out when `COc1ccccc1OCCNCCCC(C#N)(c1cc(OC)c(OC)c(OC)c1)C(C)C` (stereo not drawn) [Example 84, Alpha-isopropyl-alpha-[3-[N-[2-(2-methoxyphenoxy)ethyl]amino]propyl]-3,4,5-trimethoxyphenylacetonitrile] was run?
A: 2.52

Q: `COc1ccccc1OCCN(C)CCCC(C#N)(c1cc(OC)c(OC)c(OC)c1)C(C)C` (stereo not drawn) [Example 85] was tested. Which “Anti-arrhythmic action, relative potency (quinidine = 1)” value did it give?
A: 3.72

Q: For `COc1ccccc1OCCNCCCC(C)(C#N)c1cc(OC)c(OC)c(OC)c1` (stereo not drawn) [Example 88], which “Anti-arrhythmic action, relative potency (quinidine = 1)” value is on record?
A: 1.34

Q: How did the “Anti-arrhythmic action, relative potency (quinidine = 1)” value turn out when `COc1ccccc1OCCCNCCCC(C#N)(c1cc(OC)c(OC)c(OC)c1)C(C)C` (stereo not drawn) [Example 118, Alpha-isopropyl-alpha-[3-[N-[3-(2-methoxyphenoxy)propyl]amino]propyl]-3,4,5-trimethoxyphenylacetonitrile] was run?
A: 2.65

Q: How did the “Anti-arrhythmic action, relative potency (quinidine = 1)” value turn out when `COc1ccccc1OCCCN(C)CCCC(C#N)(c1cc(OC)c(OC)c(OC)c1)C(C)C` (stereo not drawn) [Example 119] was run?
A: 2.24

Q: With `CCCc1ccccc1OCCCNCCCC(C#N)(c1cc(OC)c(OC)c(OC)c1)C(C)C` (stereo not drawn) [Example 122] as the compound, how does the “Anti-arrhythmic action, relative potency (quinidine = 1)” value read?
A: 1.21

Q: With `COc1cc(C(C#N)(CCCNCCCOc2ccc(N)cc2)C(C)C)cc(OC)c1OC` (stereo not drawn) [Example 126] as the compound, how does the “Anti-arrhythmic action, relative potency (quinidine = 1)” value read?
A: 1.03

Q: For `COc1cc(C(C#N)(CCCNCCCOc2cccc(N)c2)C(C)C)cc(OC)c1OC` (stereo not drawn) [Example 128], which “Anti-arrhythmic action, relative potency (quinidine = 1)” value is on record?
A: 2.01

Q: For `COc1ccc(CCN(C)CCCC(C#N)(c2cc(OC)c(OC)c(OC)c2)C(C)C)cc1OC` (stereo not drawn) [Gallopamil, reference compound], which “Anti-arrhythmic action, relative potency (quinidine = 1)” value is on record?
A: 0.30

Q: How did the “Anti-arrhythmic action, relative potency (quinidine = 1)” value turn out when `CC(C)N(CCC(C(N)=O)(c1ccccc1)c1ccccn1)C(C)C` (stereo not drawn) [disopyramide, reference compound] was run?
A: 0.97

test system: Alpha-receptor; assay: Alpha-receptor blocking action (thoracic aorta, noradrenaline); set-up: species or system male rabbit; conditions: rabbit thoracic aorta helical strip, Krebs-Henseleit, 37° C., compound applied 30 min prior
Experimental: 3. Alpha-receptor blocking action
The thoracic aorta was excised from male rabbit and helically cut. The helical strip was mounted in a tissue bath containing Krebs-Henseleit solution maintained at 37° C. A resting tension of 2.0 g was applied to the tissue. The change in tension, which was induced by cumulative application of noradrenaline, was isometrically measured by the FD-pickup. The tissue bath solution was bubbled with a mixture of 95% O2 -5% CO2. The test compounds were applied 30 min prior to cumulative application of noradrenaline. The degree of alpha-blocking action was expressed as the pA2 value.

Q: For `COc1ccc(C(C#N)(CCCNCCOc2ccccc2OC)C(C)C)cc1OC.O=C(O)/C=C\C(=O)O` (stereo not drawn) [Example 4, Alpha-isopropyl-alpha-[3-[N-[2-(2-methoxyphenoxy)ethyl]amino]-propyl]-3,4-dimethoxyphenylacetonitrile Maleate], which “Alpha-blocking action, pA2 value” is on record?
A: 8.25

Q: For `COc1ccc(C(C#N)(CCCNCCOc2ccccc2OC)C(C)C)cc1` (stereo not drawn) [Example 21], which “Alpha-blocking action, pA2 value” is on record?
A: 8.02

Q: Which “Alpha-blocking action, pA2 value” does the source give for `COc1ccccc1OCCNCCCC(C#N)(c1cc(OC)c(OC)c(OC)c1)C(C)C` (stereo not drawn) [Example 84, Alpha-isopropyl-alpha-[3-[N-[2-(2-methoxyphenoxy)ethyl]amino]propyl]-3,4,5-trimethoxyphenylacetonitrile] here?
A: 8.42

Q: With `COc1ccccc1OCCNCCCC(C)(C#N)c1cc(OC)c(OC)c(OC)c1` (stereo not drawn) [Example 88] as the compound, how does the “Alpha-blocking action, pA2 value” read?
A: 8.40

Q: With `CCC(C#N)(CCCNCCOc1ccccc1OC)c1cc(OC)c(OC)c(OC)c1` (stereo not drawn) [Example 90, Alpha-ethyl-alpha-[3-[N-[2-(2-methoxyphenoxy)ethyl]amino]propyl]-3,4,5-trimethoxyphenylacetonitrile] as the compound, how does the “Alpha-blocking action, pA2 value” read?
A: 8.79

Q: `CCCC(C#N)(CCCNCCOc1ccccc1OC)c1cc(OC)c(OC)c(OC)c1` (stereo not drawn) [Example 91] was tested. Which “Alpha-blocking action, pA2 value” did it give?
A: 8.46

Q: With `CCCCC(C#N)(CCCNCCOc1ccccc1OC)c1cc(OC)c(OC)c(OC)c1` (stereo not drawn) [Example 92] as the compound, how does the “Alpha-blocking action, pA2 value” read?
A: 8.57

Q: Which “Alpha-blocking action, pA2 value” does the source give for `COc1ccccc1OCCNCCCC(C#N)(CC(C)C)c1cc(OC)c(OC)c(OC)c1` (stereo not drawn) [Example 93, Alpha-isobutyl-alpha-[3-[N-[2-(2-methoxyphenoxy)ethyl]amino]propyl]-3,4,5-trimethoxyphenylacetonitrile] here?
A: 8.67

Q: For `COc1ccc(CCN(C)CCCC(C#N)(c2cc(OC)c(OC)c(OC)c2)C(C)C)cc1OC` (stereo not drawn) [Gallopamil, reference compound], which “Alpha-blocking action, pA2 value” is on record?
A: 6.11

Q: How did the “Alpha-blocking action, pA2 value” turn out when `COc1ccc(CCN(C)CCCC(C#N)(c2ccc(OC)c(OC)c2)C(C)C)cc1OC` (stereo not drawn) [Verapamil, reference compound] was run?
A: 6.41

Reference: patent publication US4612329A, “Pharmaceutical alpha-aminoalkyl-alpha-alkylphenylacetonitriles” (Hokuriku Pharmaceutical Co., Ltd., priority 1984, dated 1986)
